# Source: patent US10485235B2, “Aryloxypyrimidinyl ethers as herbicides” (FMC Corporation, priority 2015, dated 2019)
# System: foxtail, giant (giant foxtail, Setaria faberii)
# Assay: Test A preemergence, giant foxtail
# Assay type: in vivo
# Details: Preemergence, 125 g ai/ha; 0 to 100 scale (0 no effect, 100 complete control)
# Procedure, shortened: (§1)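 Test chemicals in a solvent/surfactant mixture were applied as a preemergence directed soil spray on seeded loam–sand, or postemergence to plants 2–10 cm tall at the one- to two-leaf stage. After roughly 10 days in a greenhouse, injury was visually rated versus untreated controls on a 0 (no effect) to 100 (complete control) scale.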
row,SMILES,"Plant response rating, Foxtail, Giant"
1,N#CCCCOc1c(F)cccc1Oc1ncc(Cl)cn1 [Compound 24],30

# Same assay, conditions: Preemergence, 500 g ai/ha; 0 to 100 scale (0 no effect, 100 complete control)
row,SMILES,"Plant response rating, Foxtail, Giant"
1,N#CCCCOc1c(F)cccc1Oc1ncc(Cl)cn1 [Compound 24],100

# System: wheat (Triticum aestivum)
# Assay: Test A postemergence, wheat
# Assay type: in vivo
# Details: 125 g ai/ha, postemergence; 0 to 100 scale, 0 is no effect, 100 is complete control; approximately 10 days
# Procedure, shortened: as §1
row,SMILES,"Plant response rating, Wheat"
1,N#CCCCOc1c(F)cccc1Oc1ncc(Cl)cn1 [Compound 24],0

# Same assay, conditions: 500 g ai/ha, postemergence; 0 to 100 scale, 0 is no effect, 100 is complete control; approximately 10 days
row,SMILES,"Plant response rating, Wheat"
1,N#CCCCOc1c(F)cccc1Oc1ncc(Cl)cn1 [Compound 24],0

# System: galium (catchweed bedstraw, Galium aparine)
# Assay: Test A postemergence, galium
# Assay type: in vivo
# Details: 125 g ai/ha, postemergence; 0 to 100 scale, 0 is no effect, 100 is complete control; approximately 10 days
# Procedure, shortened: as §1
row,SMILES,"Plant response rating, Galium"
1,N#CCCCOc1c(F)cccc1Oc1ncc(Cl)cn1 [Compound 24],20

# Same assay, conditions: 500 g ai/ha, postemergence; 0 to 100 scale, 0 is no effect, 100 is complete control; approximately 10 days
row,SMILES,"Plant response rating, Galium"
1,N#CCCCOc1c(F)cccc1Oc1ncc(Cl)cn1 [Compound 24],80

# System: ryegrass, Italian (Italian ryegrass, Lolium multiflorum)
# Assay: Test A postemergence, Italian ryegrass
# Assay type: in vivo
# Details: 125 g ai/ha, postemergence; 0 to 100 scale, 0 is no effect, 100 is complete control; approximately 10 days
# Procedure, shortened: as §1
row,SMILES,"Plant response rating, Ryegrass, Italian"
1,N#CCCCOc1c(F)cccc1Oc1ncc(Cl)cn1 [Compound 24],0

# Same assay, conditions: 500 g ai/ha, postemergence; 0 to 100 scale, 0 is no effect, 100 is complete control; approximately 10 days
row,SMILES,"Plant response rating, Ryegrass, Italian"
1,N#CCCCOc1c(F)cccc1Oc1ncc(Cl)cn1 [Compound 24],0

# System: barnyardgrass (Echinochloa crus-galli)
# Assay: Test B flooded paddy test, barnyardgrass
# Assay type: in vivo
# Details: 250 g ai/ha, Flood; visual rating after 13 to 15 days; scale 0 to 100, 0 is no effect, 100 is complete control
# Procedure, shortened: (§2)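 Visual ratings, 0 = no effect to 100 = complete control, versus controls after 13 to 15 days in greenhouse. Test compounds were added to paddy water kept 3 cm over the soil surface, on plants at 2-leaf stage.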
row,SMILES,"Plant response rating, Barnyardgrass"
1,N#CCCCOc1c(F)cccc1Oc1ncc(Cl)cn1 [Compound 24],0

# System: blackgrass (Alopecurus myosuroides)
# Assay: Test A postemergence, blackgrass
# Assay type: in vivo
# Details: 125 g ai/ha, postemergence; 0 to 100 scale, 0 is no effect, 100 is complete control; approximately 10 days
# Procedure, shortened: as §1
row,SMILES,"Plant response rating, Blackgrass"
1,N#CCCCOc1c(F)cccc1Oc1ncc(Cl)cn1 [Compound 24],0

# Same assay, conditions: 500 g ai/ha, postemergence; 0 to 100 scale, 0 is no effect, 100 is complete control; approximately 10 days
row,SMILES,"Plant response rating, Blackgrass"
1,N#CCCCOc1c(F)cccc1Oc1ncc(Cl)cn1 [Compound 24],20

# System: barnyardgrass (Echinochloa crus-galli)
# Assay: Test A preemergence, barnyardgrass
# Assay type: in vivo
# Details: Preemergence, 125 g ai/ha; 0 to 100 scale (0 no effect, 100 complete control)
# Procedure, shortened: as §1
row,SMILES,"Plant response rating, Barnyardgrass"
1,N#CCCCOc1c(F)cccc1Oc1ncc(Cl)cn1 [Compound 24],20

# Same assay, conditions: Preemergence, 500 g ai/ha; 0 to 100 scale (0 no effect, 100 complete control)
row,SMILES,"Plant response rating, Barnyardgrass"
1,N#CCCCOc1c(F)cccc1Oc1ncc(Cl)cn1 [Compound 24],70

# System: barnyardgrass (Echinochloa crus-galli)
# Assay: Test A postemergence, barnyardgrass
# Assay type: in vivo
# Details: 125 g ai/ha, postemergence; 0 to 100 scale, 0 is no effect, 100 is complete control; approximately 10 days
# Procedure, shortened: as §1
row,SMILES,"Plant response rating, Barnyardgrass"
1,N#CCCCOc1c(F)cccc1Oc1ncc(Cl)cn1 [Compound 24],0

# Same assay, conditions: 500 g ai/ha, postemergence; 0 to 100 scale, 0 is no effect, 100 is complete control; approximately 10 days
row,SMILES,"Plant response rating, Barnyardgrass"
1,N#CCCCOc1c(F)cccc1Oc1ncc(Cl)cn1 [Compound 24],50

# System: ragweed (common ragweed, Ambrosia elatior)
# Assay: Test A preemergence, ragweed
# Assay type: in vivo
# Details: Preemergence, 125 g ai/ha; 0 to 100 scale (0 no effect, 100 complete control)
# Procedure, shortened: as §1
row,SMILES,"Plant response rating, Ragweed"
1,N#CCCCOc1c(F)cccc1Oc1ncc(Cl)cn1 [Compound 24],0

# Same assay, conditions: Preemergence, 500 g ai/ha; 0 to 100 scale (0 no effect, 100 complete control)
row,SMILES,"Plant response rating, Ragweed"
1,N#CCCCOc1c(F)cccc1Oc1ncc(Cl)cn1 [Compound 24],70

# System: rice (Oryza sativa)
# Assay: Test B flooded paddy test, rice
# Assay type: in vivo
# Details: 250 g ai/ha, Flood; visual rating after 13 to 15 days; scale 0 to 100, 0 is no effect, 100 is complete control
# Procedure, shortened: as §2
row,SMILES,"Plant response rating, Rice"
1,N#CCCCOc1c(F)cccc1Oc1ncc(Cl)cn1 [Compound 24],0

# System: ducksalad (Heteranthera limosa)
# Assay: Test B flooded paddy test, ducksalad
# Assay type: in vivo
# Details: 250 g ai/ha, Flood; visual rating after 13 to 15 days; scale 0 to 100, 0 is no effect, 100 is complete control
# Procedure, shortened: as §2
row,SMILES,"Plant response rating, Ducksalad"
1,N#CCCCOc1c(F)cccc1Oc1ncc(Cl)cn1 [Compound 24],30

# System: kochia (Kochia scoparia)
# Assay: Test A postemergence, kochia
# Assay type: in vivo
# Details: 125 g ai/ha, postemergence; 0 to 100 scale, 0 is no effect, 100 is complete control; approximately 10 days
# Procedure, shortened: as §1
row,SMILES,"Plant response rating, Kochia"
1,N#CCCCOc1c(F)cccc1Oc1ncc(Cl)cn1 [Compound 24],80

# Same assay, conditions: 500 g ai/ha, postemergence; 0 to 100 scale, 0 is no effect, 100 is complete control; approximately 10 days
row,SMILES,"Plant response rating, Kochia"
1,N#CCCCOc1c(F)cccc1Oc1ncc(Cl)cn1 [Compound 24],100

# System: pigweed (Amaranthus retroflexus)
# Assay: Test A postemergence, pigweed
# Assay type: in vivo
# Details: 125 g ai/ha, postemergence; 0 to 100 scale, 0 is no effect, 100 is complete control; approximately 10 days
# Procedure, shortened: as §1
row,SMILES,"Plant response rating, Pigweed"
1,N#CCCCOc1c(F)cccc1Oc1ncc(Cl)cn1 [Compound 24],40

# Same assay, conditions: 500 g ai/ha, postemergence; 0 to 100 scale, 0 is no effect, 100 is complete control; approximately 10 days
row,SMILES,"Plant response rating, Pigweed"
1,N#CCCCOc1c(F)cccc1Oc1ncc(Cl)cn1 [Compound 24],70

# System: sedge, umbrella (small-flower umbrella sedge, Cyperus difformis)
# Assay: Test B flooded paddy test, umbrella sedge
# Assay type: in vivo
# Details: 250 g ai/ha, Flood; visual rating after 13 to 15 days; scale 0 to 100, 0 is no effect, 100 is complete control
# Procedure, shortened: as §2
row,SMILES,"Plant response rating, Sedge, Umbrella"
1,N#CCCCOc1c(F)cccc1Oc1ncc(Cl)cn1 [Compound 24],0

# System: pigweed (Amaranthus retroflexus)
# Assay: Test A preemergence, pigweed
# Assay type: in vivo
# Details: Preemergence, 125 g ai/ha; 0 to 100 scale (0 no effect, 100 complete control)
# Procedure, shortened: as §1
row,SMILES,"Plant response rating, Pigweed"
1,N#CCCCOc1c(F)cccc1Oc1ncc(Cl)cn1 [Compound 24],90

# Same assay, conditions: Preemergence, 500 g ai/ha; 0 to 100 scale (0 no effect, 100 complete control)
row,SMILES,"Plant response rating, Pigweed"
1,N#CCCCOc1c(F)cccc1Oc1ncc(Cl)cn1 [Compound 24],100

# System: ragweed (common ragweed, Ambrosia elatior)
# Assay: Test A postemergence, ragweed
# Assay type: in vivo
# Details: 125 g ai/ha, postemergence; 0 to 100 scale, 0 is no effect, 100 is complete control; approximately 10 days
# Procedure, shortened: as §1
row,SMILES,"Plant response rating, Ragweed"
1,N#CCCCOc1c(F)cccc1Oc1ncc(Cl)cn1 [Compound 24],10

# Same assay, conditions: 500 g ai/ha, postemergence; 0 to 100 scale, 0 is no effect, 100 is complete control; approximately 10 days
row,SMILES,"Plant response rating, Ragweed"
1,N#CCCCOc1c(F)cccc1Oc1ncc(Cl)cn1 [Compound 24],50

# System: kochia (Kochia scoparia)
# Assay: Test A preemergence, kochia
# Assay type: in vivo
# Details: Preemergence, 125 g ai/ha; 0 to 100 scale (0 no effect, 100 complete control)
# Procedure, shortened: as §1
row,SMILES,"Plant response rating, Kochia"
1,N#CCCCOc1c(F)cccc1Oc1ncc(Cl)cn1 [Compound 24],60

# Same assay, conditions: Preemergence, 500 g ai/ha; 0 to 100 scale (0 no effect, 100 complete control)
row,SMILES,"Plant response rating, Kochia"
1,N#CCCCOc1c(F)cccc1Oc1ncc(Cl)cn1 [Compound 24],100

# System: corn (Zea mays)
# Assay: Test A postemergence, corn
# Assay type: in vivo
# Details: 125 g ai/ha, postemergence; 0 to 100 scale, 0 is no effect, 100 is complete control; approximately 10 days
# Procedure, shortened: as §1
row,SMILES,"Plant response rating, Corn"
1,N#CCCCOc1c(F)cccc1Oc1ncc(Cl)cn1 [Compound 24],0

# Same assay, conditions: 500 g ai/ha, postemergence; 0 to 100 scale, 0 is no effect, 100 is complete control; approximately 10 days
row,SMILES,"Plant response rating, Corn"
1,N#CCCCOc1c(F)cccc1Oc1ncc(Cl)cn1 [Compound 24],10

# System: foxtail, giant (giant foxtail, Setaria faberii)
# Assay: Test A postemergence, giant foxtail
# Assay type: in vivo
# Details: 125 g ai/ha, postemergence; 0 to 100 scale, 0 is no effect, 100 is complete control; approximately 10 days
# Procedure, shortened: as §1
row,SMILES,"Plant response rating, Foxtail, Giant"
1,N#CCCCOc1c(F)cccc1Oc1ncc(Cl)cn1 [Compound 24],0

# Same assay, conditions: 500 g ai/ha, postemergence; 0 to 100 scale, 0 is no effect, 100 is complete control; approximately 10 days
row,SMILES,"Plant response rating, Foxtail, Giant"
1,N#CCCCOc1c(F)cccc1Oc1ncc(Cl)cn1 [Compound 24],30

# System: ryegrass, Italian (Italian ryegrass, Lolium multiflorum)
# Assay: Test A preemergence, Italian ryegrass
# Assay type: in vivo
# Details: Preemergence, 125 g ai/ha; 0 to 100 scale (0 no effect, 100 complete control)
# Procedure, shortened: as §1
row,SMILES,"Plant response rating, Ryegrass, Italian"
1,N#CCCCOc1c(F)cccc1Oc1ncc(Cl)cn1 [Compound 24],0

# Same assay, conditions: Preemergence, 500 g ai/ha; 0 to 100 scale (0 no effect, 100 complete control)
row,SMILES,"Plant response rating, Ryegrass, Italian"
1,N#CCCCOc1c(F)cccc1Oc1ncc(Cl)cn1 [Compound 24],20
